Data taken from patent EP3046573B1, “AMYLIN ANALOGUES” (Zealand Pharma A/S, priority 2013, dated 2015).
Where two headings read alike, the source gives them in different places. Numbered stars: 1 amine (or outer) side, 2 acyl side, 3 side chain; on linkers, the order of the positions; unused ones are H or OH. Bridge positions count the residues as written; N and C are the ends. Square brackets hold non-standard residues; d marks the D form. Peptide text beside a SMILES is read from it. * marks the point of attachment. C20 diacid = O=C(O)CCCCCCCCCCCCCCCCCCC(=O)*; γGlu = O=C(O)[C@H](CCC(=O)[*:2])N[*:1]; NMeI = CC[C@H](C)[C@H](NC)C(=O)O; Pip = O=C(O)[C@@H]1CCCCN1; Sar = CNCC(=O)O

Columns and labels:
[1] = biological target: T1, human calcitonin receptor (hCTR2) (Homo sapiens, UniProt P30988); experiment: hCTR2 assay: induction of cAMP (AlphaScreen cAMP Assay kit) in COS7 cells expressing hCTR2; assay type: cell-based
T1 construct: expressed in transfected cells
T1 sequence (P30988 25-474): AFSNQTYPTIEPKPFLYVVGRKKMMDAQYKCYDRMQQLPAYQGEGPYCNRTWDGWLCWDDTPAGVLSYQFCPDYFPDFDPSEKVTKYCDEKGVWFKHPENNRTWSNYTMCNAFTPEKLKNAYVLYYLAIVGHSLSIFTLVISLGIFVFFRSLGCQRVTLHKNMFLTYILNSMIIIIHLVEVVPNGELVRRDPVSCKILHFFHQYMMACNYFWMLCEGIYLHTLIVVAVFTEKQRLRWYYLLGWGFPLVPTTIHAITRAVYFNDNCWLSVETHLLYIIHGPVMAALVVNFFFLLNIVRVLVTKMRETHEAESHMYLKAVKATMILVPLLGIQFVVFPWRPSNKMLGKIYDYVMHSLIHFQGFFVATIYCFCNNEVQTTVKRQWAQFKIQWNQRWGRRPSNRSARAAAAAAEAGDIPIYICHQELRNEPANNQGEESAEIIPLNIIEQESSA
Outline: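 Cells were seeded one day ahead, washed, then exposed to rising peptide concentrations for 15 min at 37° C in the presence of 100 µM IBMX. After lysis for 10 min at room temperature, cAMP was quantified by AlphaScreen and EC50 values derived by 4PL fitting.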

[2] = biological target: T2, human amylin receptor 3 (hAMYR3) consisting of hCTR2 co-expressed with human Receptor Activity Modifying Protein 3 (hRAMP3) (Homo sapiens, UniProt O60896+P30988); experiment: hAMYR3 assay: induction of cAMP (AlphaScreen cAMP Assay kit) in COS7 cells expressing hAMYR3; assay type: cell-based
T2 construct: expressed in transfected cells
T2 sequence (P30988 25-474): T1 sequence (P30988 25-474)
T2 sequence (O60896 24-148 partner): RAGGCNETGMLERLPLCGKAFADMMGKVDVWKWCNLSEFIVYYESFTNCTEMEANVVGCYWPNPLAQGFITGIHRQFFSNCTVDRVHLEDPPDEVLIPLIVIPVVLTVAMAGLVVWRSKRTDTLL
Outline: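 cAMP accumulation read by AlphaScreen in lysates of RAMP-naive COS7 cells stably transfected with hCTR2 plus hRAMP3. Cells exposed to peptide dilutions for 15 min, 37° C, with 100 µM IBMX; 4PL fitting gave EC50 and efficacy relative to pramlintide.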

[3] = Solubility assessment (turbidity absorbance at 325 nm); assay type: physicochemical; conditions: stock 2 mg/ml diluted 1:1, ambient temperature (typically 25°C), n=1; for Solubility, Acetate buffer pH 4: 100 mM acetate buffer pH 4.0; for Solubility, Acetate buffer pH 5: 100 mM acetate buffer pH 5.0; for Solubility, Histidine buffer pH 6: 100 mM histidine buffer pH 6.0; for Solubility, Histidine buffer pH 7: 100 mM histidine buffer pH 7.0; for Solubility, Phosphate buffer pH 6: 100 mM phosphate buffer pH 6.0; for Solubility, Phosphate buffer pH 7: 100 mM phosphate buffer pH 7.0; for Solubility, Phosphate buffer pH 7.5: 100 mM phosphate buffer pH7.5
Outline: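 Turbidimetric screen across pH 4.0–7.5 in 100 mM acetate, histidine and phosphate buffers. A 2 mg/ml peptide stock (pH 2.5) was diluted 1:1 into each, then A325 measured at ambient temperature; values ≤ 0.02 AU denoted solubility of 1 mg/ml or more.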

SMILES | EC50 [1] | EC50 [2] | Solubility, Acetate buffer pH 4 [3] | Solubility, Acetate buffer pH 5 [3] | Solubility, Histidine buffer pH 6 [3] | Solubility, Histidine buffer pH 7 [3] | Solubility, Phosphate buffer pH 6 [3] | Solubility, Phosphate buffer pH 7 [3] | Solubility, Phosphate buffer pH 7.5 [3] | EC50 ([1]; cAMP induction in COS7 cells expressing hCTR2, average of a minimum of 3 determinations, read-out: hCTR2 EC50) | EC50 ([2]; cAMP induction in COS7 cells expressing hAMYR3, average of a minimum of 3 determinations, read-out: hAMY R3 EC50)
CC[C@H](C)[C@@H](C(=O)N[C@@H](CC(C)C)C(=O)N[C@@H](CO)C(=O)N[C@@H](CO)C(=O)N[C@H](C(=O)N[C@@H](CC(N)=O)C(=O)N[C@H](C(=O)NCC(=O)N[C@@H](CO)C(=O)N[C@@H](CC(N)=O)C(=O)N[C@H](C(=O)N1CCCC[C@H]1C(N)=O)[C@@H](C)O)C(C)C)[C@@H](C)O)N(C)C(=O)[C@H](C)NC(=O)CN(C)C(=O)[C@H](Cc1ccccc1)NC(=O)[C@H](CC(N)=O)NC(=O)[C@H](CC(N)=O)NC(=O)[C@H](CO)NC(=O)[C@H](CO)NC(=O)[C@H](CCCNC(=N)N)NC(=O)[C@H](Cc1c[nH]cn1)NC(=O)[C@H](CC(C)C)NC(=O)[C@H](Cc1ccccc1)NC(=O)[C@H](CCC(=O)O)NC(=O)[C@H](C)NC(=O)[C@H](CC(C)C)NC(=O)[C@H](CCCNC(=N)N)NC(=O)[C@H](CCC(N)=O)NC(=O)[C@@H](NC(=O)[C@H](C)NC(=O)[C@@H]1CSSC[C@H](NC(=O)[C@H](CCCNC(=N)N)NC(=O)CC[C@H](NC(=O)CCCCCCCCCCCCCCCCCCC(=O)O)C(=O)O)C(=O)N[C@@H](CC(N)=O)C(=O)N[C@@H]([C@@H](C)O)C(=O)N[C@@H](C)C(=O)N[C@@H]([C@@H](C)O)C(=O)N1)[C@@H](C)O [Compound 109, [19CD]-isoGlu-RC()NTATC()ATQRLAEFLHRSSNNF-Gly(Me)-A-Ile(Me)-LSSTNVGSNT-Pip-NH2] ({C20 diacid-γGlu}-RCNTATCATQRLAEFLHRSSNNF[Sar]A[NMeI]LSSTNVGSNT[Pip]-NH2; disulfide 2-7) | 0.3 nM | 0.52 nM | SS (SS indicates solubility ≥ 1mg/ml) | SS (SS indicates solubility ≥ 1mg/ml) | SS (SS indicates solubility ≥ 1mg/ml) | SS (SS indicates solubility ≥ 1mg/ml) | II (II indicates solubility ≤ 1 mg/ml) | SS (SS indicates solubility ≥ 1mg/ml) | SS (SS indicates solubility ≥ 1mg/ml) |  | 
CC[C@H](C)[C@@H](C(=O)N[C@@H](CC(C)C)C(=O)N[C@@H](CO)C(=O)N[C@@H](CO)C(=O)N[C@H](C(=O)N[C@@H](CCC(=O)O)C(=O)N[C@H](C(=O)NCC(=O)N[C@@H](CO)C(=O)N[C@@H](CCC(=O)O)C(=O)N[C@H](C(=O)N1CCC[C@H]1C(N)=O)[C@@H](C)O)C(C)C)[C@@H](C)O)N(C)C(=O)[C@H](C)NC(=O)CN(C)C(=O)[C@H](Cc1ccccc1)NC(=O)[C@H](CO)NC(=O)[C@H](CO)NC(=O)[C@H](CO)NC(=O)[C@H](CO)NC(=O)[C@H](CCCNC(=N)N)NC(=O)[C@H](Cc1c[nH]cn1)NC(=O)[C@H](CC(C)C)NC(=O)[C@H](Cc1ccccc1)NC(=O)[C@H](CCC(=O)O)NC(=O)[C@H](C)NC(=O)[C@H](CC(C)C)NC(=O)[C@H](CCCNC(=N)N)NC(=O)[C@H](CCC(=O)O)NC(=O)[C@@H](NC(=O)[C@H](C)NC(=O)[C@@H]1CSSC[C@H](NC(=O)[C@H](CCCNC(=N)N)NC(=O)CC[C@H](NC(=O)CCCCCCCCCCCCCCCCCCC(=O)O)C(=O)O)C(=O)N2CCC[C@H]2C(=O)N[C@@H]([C@@H](C)O)C(=O)N[C@@H](C)C(=O)N[C@@H]([C@@H](C)O)C(=O)N1)[C@@H](C)O [Compound 136, [19CD]-isoGlu-RC()PTATC()ATERLAEFLHRSSSSF-Gly(Me)-A-Ile(Me)-LSSTEVGSETP-NH2] ({C20 diacid-γGlu}-RCPTATCATERLAEFLHRSSSSF[Sar]A[NMeI]LSSTEVGSETP-NH2; disulfide 2-7) |  |  | SS (SS indicates solubility ≥ 1mg/ml) | SS (SS indicates solubility ≥ 1mg/ml) | SS (SS indicates solubility ≥ 1mg/ml) | SS (SS indicates solubility ≥ 1mg/ml) | SS (SS indicates solubility ≥ 1mg/ml) | SS (SS indicates solubility ≥ 1mg/ml) | SS (SS indicates solubility ≥ 1mg/ml) | 0.12 nM | 0.29 nM
